Source: patent US20160194631A1, “Methods for Modulation of Autophagy Through the Modulation of Autophagy-Inhibiting Gene Products” (Harvard Medical School, priority 2009, published 2016)
“Also recorded” adds a separate entry of the source.

Legend:
Type in all cases: cell-based, human
[1] = tested on: H4 cells stably expressing LC3-GFP; test: LC3-GFP autophagosome translocation image-based assay; conditions: for autophagy as measured by LC3-GFP translocation: H4 LC3-GFP cells grown in serum-free medium, cytokine 24 hours; for autophagy (autophagosome associated LC3-GFP): H4 LC3-GFP cells in defined medium
Description: (§1) H4 human neuroblastoma cells were cultured under standard tissue culture conditions in DMEM media supplemented with 10% normal calf serum, penicillin/streptomycin, sodium pyruvate (Invitrogen) and, where appropriate, 0.4-1.2 mg/mL G418. LC3-GFP and FYVE-dsRed H4 cells were generated as described in Zhang et al., PNAS, 102, 15545-15550 (2007). To create a stable line expressing Lamp1, H4 cells were transfected with Lamp1-RFP plasmid using TransIT LT1 reagent (Minis), followed by selection with 0.4 mg/mL G418. Bcl-2 expressing cell lines were created by infecting LC3-GFP and FYVE-dsRed H4 cells with pBabe-Bcl-2 retrovirus, followed by selection with […] puromycin.
For the cytokine assays, cells were seeded at 0.5×10^5 in full medium in either 24-well (western) or 96-well (LC3-GFP quantification) plates. After 24 hours, cells were washed in PBS and serum-free OptiMEM medium (Invitrogen) was added along with the indicated growth factors and/or cytokines for an additional 24 hours. Growth factors and cytokines used include human TNFα (Cell Sciences), human LIF (GeneScript Corporation), human FGF2 (ProSpec), human IGF1 (ProSpec), human SDF1 (Prospec) and human CLCF1 (R&D Systems). To induce starvation, cells were cultured for 24 hours in full media, washed in PBS and cultured for additional 4 hours in HBSS bedia (Invitrogen). […]
For high-throughput screens, cells were imaged on an automated CellWoRx microscope (Applied Precision) at 10× magnification using 2 wavelengths (350 nm to detect Hoechst, 488 nm to detect LC3-GFP) for the primary screens and 3 wavelengths (350 nm, 488 nm and 550 nm to detect Lamp1-RFP or FYVE-dsRed) for the secondary screens. All images were quantified using VHSscan and VHSview image analysis software (Cellomics). Total cell number, total LC3-GFP intensity/cell as well as number, area and intensity of LC3-GFP positive autophagosomes/cell were scored. All dead and mitotic cells were excluded from analysis based on nuclear intensity. The final autophagy score for each well was obtained by multiplying the total autophagosome intensity/cell by the number of autophagosomes/cell and dividing by the average cell intensity. This formula was empirically determined to accurately measure LC3-GFP translocation from cytosol into autophagosomes as reflected by consistently significant z-scores and p-values when using siRNAs against mTOR and Atg5 controls. FYVE-dsRed and Lamp1-RFP scores were obtained in a manner similar to LC3-GFP scores, except that for Lamp1-RFP, which measures total accumulation of the reporter rather than its translocation, division by the average cell intensity was omitted.
For low-throughput follow-up analysis, cells were grown on glass cover slips. Following fixation in 4% paraformaldehyde and counterstaining with Hoechst, cover slips were mounted in 50% glycerol, 0.1% n-propyl gallate/PBS. Cells were imaged at 40× magnification on a Nikon Eclipse E800 microscope. Cell numbers, cell area and intensity, as well as autophagosome number and intensity, were quantified using Metamorph software. Autophagy was scored as number of autophagosomes per cell.
Human neuroblastoma H4 cells stably expressing the LC3-GFP reporter were used to identify genes involved in the regulation of autophagy in mammals. […] When autophagy is induced in these cells, LC3-GFP is recruited from the cytosol and can be visualized in a punctate pattern corresponding to autophagosomes. In order to validate the system, cells were transfected with siRNA against either the essential autophagy mediator ATG5 or against mTOR, a suppressor of starvation-induced autophagy. Following 72 hours of incubation under normal nutritional conditions, […].

GRP78 and GRP94 = test: In-cell-western of KDEL (GRP78/GRP94) expression (ER stress); conditions: H4 cells treated with tunicamycin
Description: For quantitative analysis of mTORC1 signaling and induction of endoplasmic reticulum stress, in-cell-western analysis of rpS6 phosphorylation and KDEL (GRP78/GRP94) expression (‘KDEL’ disclosed as SEQ ID NO: 2), respectively, were performed. H4 cells were cultured in 384-well plates and fixed and counterstained as described for the LC3-GFP assay. Following imaging, the cells were permeabilized in PBS containing 0.2% Tx-100 and stained with Alexa-680 NETS-ester, a non-specific lysine reactive probe used to measure relative cell number, at 20 ng/mL for 15 minutes. Subsequently, the cells were washed with PBS containing 0.2% Tx-100 and incubated for 30 minutes in blocking buffer (LiCOR Blocking Buffer diluted 1:1 with PBS+0.2% Tx-100). Cells were then incubated overnight with a rabbit-anti-rpS6 phospho-235/236 (Cell Signaling Technologies), or mouse-anti-KDEL (Stressgen) antibody (‘KDEL’ disclosed as SEQ ID NO: 2) diluted 1:1000 in blocking buffer. […] The intensities of both, the rpS6 phospho-235/236 or KDEL staining (‘KDEL’ disclosed as SEQ ID NO: 2), and of NHS-ester staining were integrated, and the normalized phospho-S6 or KDEL score (‘KDEL’ disclosed as SEQ ID NO: 2) were calculated by dividing phospho-rpS6 or KDEL intensity by NHS-ester intensity (‘KDEL’ disclosed as SEQ ID NO: 2). […]

H4 cells [2] = test: Western blot of autophagy markers (LC3, p62); conditions: for autophagy by western blot (LC3II accumulation, LC3 II/tubulin): serum-free medium, 100 ng/mL IGF1, 50 ng/mL FGF2, LIF or CLCF1, 10 μg/mL E64d, with or without 50 nM rapamycin, H4, HEK293, HeLa, MCF7
Description: For the cytokine assays, cells were seeded at 0.5×10^5 in full medium in either 24-well (western) or 96-well (LC3-GFP quantification) plates. After 24 hours, cells were washed in PBS and serum-free OptiMEM medium (Invitrogen) was added along with the indicated growth factors and/or cytokines for an additional 24 hours. Growth factors and cytokines used include human TNFα (Cell Sciences), human LIF (GeneScript Corporation), human FGF2 (ProSpec), human IGF1 (ProSpec), human SDF1 (Prospec) and human CLCF1 (R&D Systems). To induce starvation, cells were cultured for 24 hours in full media, washed in PBS and cultured for additional 4 hours in HBSS bedia (Invitrogen).
For western blot analysis, lysosomal protease inhibitor E64d (Sigma) was added at a concentration of 10 μg/mL for the last 8-12 hours before cell lysis.
(§2) For western blots, cells were lysed in Lammeli sample buffer, resolved on a 10-12% SDS-PAGE gel and transferred to PVDF membrane. The following antibodies were used: LC3 (Novus), p62 (Pharmigen), phospho-S6K (Thr389), phospho-Akt (Ser473), phospho-Stat3 (Tyr705), RelA, Sod1, phospho-PTEN (Ser380/Thr382/383) (all Cell Signaling), Bcl-2 (Santa Cruz), all at 1:1000, phospho-S6 (Ser235/236) (Cell Signaling) and phospho-ERK 1/2 (Sigma) at 1:2000, tubulin (Sigma) at 1:5000. Where indicated, blots were quantified using NIH ImageJ64 software.

type III PI3 kinase = test: FYVE-dsRed reporter assay of PtdIns3P levels
Description: as §1
For secondary screens, a siRNA library was used in which the 4 siRNAs of each siRNA pool were separated into individual wells. […]
For high-throughput screens, cells were imaged on an automated CellWoRx microscope (Applied Precision) at 10× magnification using 2 wavelengths (350 nm to detect Hoechst, 488 nm to detect LC3-GFP) for the primary screens and 3 wavelengths (350 nm, 488 nm and 550 nm to detect Lamp1-RFP or FYVE-dsRed) for the secondary screens. All images were quantified using VHSscan and VHSview image analysis software (Cellomics). Total cell number, total LC3-GFP intensity/cell as well as number, area and intensity of LC3-GFP positive autophagosomes/cell were scored. […]

H4 cells [3] = test: Western blot of signalling protein levels and phosphorylation; conditions: for activating phosphorylation of Stat3: 50 ng/mL LIF or CLCF1
Text: as §2

[4] = 100 ng/mL IGF1 plus Akt inhibitor VIII

Q: Which autophagy ([1]; H4 cells treated with tunicamycin) does the source give for tunicamycin [reference compound] here?
A: Its autophagy is “increase in autophagy”.

Q: What about the “levels of GRP78 and GRP94” value (GRP78 and GRP94) of the same molecule?
A: Its value is “dose-dependent up-regulation”.

Q: Which “autophagy as measured by LC3-GFP translocation” value (from here on “autophagy as measured”) [1] does the source give for “SDF1: human SDF1 (Prospec); chemokine SDF1 (CXCL12)” here?
A: The value was “significant down-regulation of autophagy”.

Q: For TNFα, which “autophagy (autophagosome associated LC3-GFP)” value ([1]; higher doses of TNFα) is on record?
A: Its value is “up-regulation of autophagy”.

Q: And the “autophagy (autophagosome associated LC3-GFP)” value ([1]; low doses of TNFα)?
A: The value was “down-regulation of autophagy”.

Q: What about the “p62 level by western blot” value (H4 cells [2]; low levels of TNFα (5 ng/ml), nutrient deprivation) of the same molecule?
A: The value was “significant accumulation of p62”.

Q: With `N#CC(=C(/N)Sc1ccccc1N)/C(C#N)=C(/N)Sc1ccccc1N` [UO126, reference compound] as the molecule, how does the “effect on inhibition of autophagy by FGF2 (LC3 western)” value (H4 cells [2]; H4 cells, serum-free media, 50 ng/mL FGF2, 10 μg/mL E64d, UO126 pre-treatment) read?
A: The value was “attenuated inhibition of autophagy; also recorded: prevented”.

Q: How did the “effect on Aβ-induced accumulation of PtdIns3P” value (type III PI3 kinase; with antioxidant NAC) turn out when `CC(=O)N[C@@H](CS)C(=O)O` [NAC, N-acetyl-L-cysteine, reference compound] was run?
A: Its value is “suppressed”.

Q: And the “effect on induction of autophagy caused by knock-down of Sod1” value ([1]; H4 LC3-GFP cells, 2.5 mM NAC)?
A: The value was “significantly attenuated”.

Q: What about the “effect on elevated induction of autophagy in response to starvation” value ([1]; RelA deficient H4 cells, 2.5 mM NAC) of the same molecule?
A: The value was “attenuated”.

Q: With “LIF: human LIF (GeneScript Corporation); leukemia inhibitory factor” as the molecule, how does the “autophagy as measured” value [1] read?
A: Its value is “significant down-regulation of autophagy”.

Q: And the “activating phosphorylation of Stat3” value (H4 cells [3])?
A: Its value is “increased activating phosphorylation of Stat3”.

Q: What about the “autophagy by western blot (LC3II accumulation, LC3 II/tubulin)” value (from here on “autophagy by western blot”) (H4 cells [2]) of the same molecule?
A: The value was “suppress autophagy in the absence and presence of rapamycin”.

Q: How did the “autophagy as measured” value [1] turn out when “FGF2: human FGF2 (ProSpec); fibroblast growth factor 2 (basic)” was run?
A: The value was “significant down-regulation of autophagy”.

Q: And the “level of phospho-ERK1/2 and phospho-RSK” value (H4 cells [3]; H4 cells, serum-free media, 50 ng/mL FGF2)?
A: Its value is “increased level”.

Q: What about the “autophagy by western blot” value (H4 cells [2]) of the same molecule?
A: Its value is “suppress autophagy in the absence and presence of rapamycin”.

Q: For `Cn1cnc(=N)c2[nH]cnc21` [3MA, reference compound], which “effect on Aβ-induced accumulation of PtdIns3P” value (type III PI3 kinase; 3MA 10 mM, 8 hours prior to fixation) is on record?
A: Its value is “suppressed”.

Q: What about the “effect on induction of autophagy in response to Aβ” value ([1]; H4 GFP-LC3 cells, 3MA) of the same molecule?
A: Its value is “attenuate induction of autophagy”.

Q: What does the source list for `O=c1[nH]c2ccccc2n1C1CCN(Cc2ccc(-c3nc4cc5[nH]cnc5cc4nc3-c3ccccc3)cc2)CC1` [Akt inhibitor VIII, reference compound]?
A: phosphorylation of Foxo3a and S6 kinase (H4 cells [3]; [4]): attenuated phosphorylation; effect on inhibition of autophagy by IGF1 (H4 cells [2]; [4]): prevented inhibition of autophagy

Q: How did the “autophagy as measured” value [1] turn out when “IGF1: human IGF1 (ProSpec); insulin-like growth factor 1” was run?
A: The value was “significant down-regulation of autophagy”.

Q: What about the “phosphorylation of Akt and Foxo3a” value (H4 cells [3]; IGF-1 treatment, absence and presence of rapamycin) of the same molecule?
A: The value was “increased”.

Q: What about the “autophagy by western blot” value (H4 cells [2]) of the same molecule?
A: The value was “suppress autophagy in the absence and presence of rapamycin”.

B1: CLCF1: human CLCF1 (R&D Systems); cardiotrophin-like cytokine factor 1 (protein, UniProt Q9UBD9 28-225, looked up)
Cardiotrophin-like cytokine …: LNRTGDPGPGPSIQKTYDLTRYLEHQLRSLAGTYLNYLGPPFNEPDFNPPRLGAETLPRATVDLEVWRSLNDKLRLTQNYEAYSHLLCYLRGLNRQAATAELRRSLAHFCTSLQGLLGSIAGVMAALGYPLPQPLPGTEPTWTPGPAHSDFLQKMDDFWLLKELQTWLWRSAKDFNRLKKKMQPPAAAVTLHLGAHGF
Q: Which results are given for B1?
A: autophagy as measured by LC3-GFP translocation [1]: significant down-regulation of autophagy; activating phosphorylation of Stat3 (H4 cells [3]): increased activating phosphorylation of Stat3; autophagy by western blot (LC3II accumulation, LC3 II/tubulin) (H4 cells [2]): suppress autophagy in the absence and presence of rapamycin
